Experimental data from PubChem BioAssay AID1259407 (Chemical Carcinogenesis Research Information System (CCRIS), 2018).
The source made the active and inactive calls. The rule behind the calls is not given here.

Tested on: CCRIS mutagenicity, Ames/micronucleus/aberration tests
Assay: CCRIS mutagenicity studies
[1] = Test System: AMES SALMONELLA TYPHIMURIUM, Strain/Indicator: TA98, Metabolic Activation: NONE, Method: PREINCUBATION
[2] = Test System: AMES SALMONELLA TYPHIMURIUM, Strain/Indicator: TA100, Metabolic Activation: NONE, Method: PREINCUBATION
[3] = Test System: AMES SALMONELLA TYPHIMURIUM, Strain/Indicator: TA97, Metabolic Activation: NONE, Method: PREINCUBATION
[4] = Test System: AMES SALMONELLA TYPHIMURIUM, Strain/Indicator: TA100, Metabolic Activation: HAMSTER, LIVER, S-9, AROCLOR 1254 (10%), Method: PREINCUBATION
[5] = Test System: AMES SALMONELLA TYPHIMURIUM, Strain/Indicator: TA1535, Metabolic Activation: NONE, Method: PREINCUBATION

`Nc1ccc2cccnc2c1` was tested, and the mutagenic call [1] was “inactive; negative”, the mutagenic call (Test System: AMES SALMONELLA TYPHIMURIUM, Strain/Indicator: TA98, Metabolic Activation: RAT, LIVER, S-9, KANECHLOR 500 OR PHENOBARBITAL AND BETA-NAPHTHOFLAVONE, Method: PREINCUBATION) was “active; positive” and the mutagenic call [2] was “active; positive”. For the same compound, the mutagenic call (Test System: AMES SALMONELLA TYPHIMURIUM, Strain/Indicator: TA100, Metabolic Activation: RAT, LIVER, S-9, KANECHLOR 500 OR PHENOBARBITAL AND BETA-NAPHTHOFLAVONE, Method: PREINCUBATION) was “active; positive”.

With `COC1OC1(C)C` (configuration not stated) the mutagenic call (Test System: AMES SALMONELLA TYPHIMURIUM, Strain/Indicator: TA100, Metabolic Activation: NONE, Method: STANDARD PLATE) was “active; positive” and the mutagenic call (Test System: AMES SALMONELLA TYPHIMURIUM, Strain/Indicator: TA1535, Metabolic Activation: NONE, Method: STANDARD PLATE) was “active; positive”.

With `Cc1cc(N=Nc2c(O)ccc3ccccc23)c(S(=O)(=O)O)cc1Cl` the mutagenic call (End Point: IN VITRO CHROMOSOMAL ABERRATIONS, Test System: CHO CELLS, Metabolic Activation: NONE) was “inactive; negative”, the mutagenic call (End Point: IN VITRO CHROMOSOMAL ABERRATIONS, Test System: CHO CELLS, Metabolic Activation: RAT, LIVER, S-9, AROCLOR 1254) was “inactive; negative” and the mutagenic call (Test System: AMES SALMONELLA TYPHIMURIUM, Strain/Indicator: TA97, Metabolic Activation: HAMSTER, LIVER, S-9, AROCLOR 1254 (10%), Method: PREINCUBATION) was “inactive; negative”. For the same compound, the mutagenic call [3] was “inactive; negative”, the mutagenic call (Test System: AMES SALMONELLA TYPHIMURIUM, Strain/Indicator: TA97, Metabolic Activation: RAT, LIVER, S-9, AROCLOR 1254 (10%), Method: PREINCUBATION) was “inactive; negative” and the mutagenic call (Test System: AMES SALMONELLA TYPHIMURIUM, Strain/Indicator: TA98, Metabolic Activation: HAMSTER, LIVER, S-9, AROCLOR 1254 (5, 10 OR 30%), Method: PREINCUBATION) was “inactive; negative”. The mutagenic call (Test System: AMES SALMONELLA TYPHIMURIUM, Strain/Indicator: TA98, Metabolic Activation: RAT, LIVER, S-9, AROCLOR 1254 (10%), Method: PREINCUBATION) was “inactive; negative”, the mutagenic call [4] was “inactive; negative” and the mutagenic call [2] was “inactive; negative”. The mutagenic call (Test System: AMES SALMONELLA TYPHIMURIUM, Strain/Indicator: TA100, Metabolic Activation: RAT, LIVER, S-9, AROCLOR 1254 (10%), Method: PREINCUBATION) was “inactive; negative”, the mutagenic call (Test System: AMES SALMONELLA TYPHIMURIUM, Strain/Indicator: TA100, Metabolic Activation: RAT, LIVER, S-9, AROCLOR 1254, FLAVIN MONONUCLEOTIDE, Method: PREINCUBATION (PRIVAL METHOD)) was “inactive; negative” and the mutagenic call (Test System: AMES SALMONELLA TYPHIMURIUM, Strain/Indicator: TA100, Metabolic Activation: RAT, LIVER, S-9, AROCLOR 1254, Method: PREINCUBATION) was “inactive; negative”. For the same compound, the mutagenic call (Test System: AMES SALMONELLA TYPHIMURIUM, Strain/Indicator: TA1535, Metabolic Activation: HAMSTER, LIVER, S-9, AROCLOR 1254 (10%), Method: PREINCUBATION) was “inactive; negative”, the mutagenic call [5] was “inactive; negative” and the mutagenic call (Test System: AMES SALMONELLA TYPHIMURIUM, Strain/Indicator: TA1535, Metabolic Activation: RAT, LIVER, S-9, AROCLOR 1254 (10%), Method: PREINCUBATION) was “inactive; negative”. The mutagenic call (Test System: AMES SALMONELLA TYPHIMURIUM, Strain/Indicator: TA1537, Metabolic Activation: NONE, Method: PREINCUBATION) was “inactive; negative”.

In the case of `CCn1cc(C(=O)O)c(=O)c2ccc(C)nc21`, the mutagenic call (End Point: In vitro micronucleus, Test System: WTK-1 human lymphoma cells, Metabolic Activation: None) is reported as “inactive; negative”, the mutagenic call (Test System: AMES SALMONELLA TYPHIMURIUM, Strain/Indicator: TA97, Metabolic Activation: HAMSTER, LIVER, S-9, AROCLOR 1254 (10% OR 30%), Method: PREINCUBATION) is reported as “inactive; negative” and the mutagenic call (Test System: AMES SALMONELLA TYPHIMURIUM, Strain/Indicator: TA97, Metabolic Activation: HAMSTER, LIVER, S-9, AROCLOR 1254 (10 OR 30%), Method: PREINCUBATION) is reported as “inactive; negative”. The mutagenic call [3] was “inactive; negative”, the mutagenic call (Test System: AMES SALMONELLA TYPHIMURIUM, Strain/Indicator: TA97, Metabolic Activation: RAT, LIVER, S-9, AROCLOR 1254 (10% OR 30%), Method: PREINCUBATION) was “inactive; negative” and the mutagenic call (Test System: AMES SALMONELLA TYPHIMURIUM, Strain/Indicator: TA97, Metabolic Activation: RAT, LIVER, S-9, AROCLOR 1254 (10 OR 30%), Method: PREINCUBATION) was “inactive; negative”. The mutagenic call (Test System: AMES SALMONELLA TYPHIMURIUM, Strain/Indicator: TA98, Metabolic Activation: HAMSTER, LIVER, S-9, AROCLOR 1254 (10% OR 30%), Method: PREINCUBATION) was “inactive; negative”, the mutagenic call (Test System: AMES SALMONELLA TYPHIMURIUM, Strain/Indicator: TA98, Metabolic Activation: HAMSTER, LIVER, S-9, AROCLOR 1254 (10 OR 30%), Method: PREINCUBATION) was “inactive; negative” and the mutagenic call [1] was “inactive; negative”. For the same compound, the mutagenic call (Test System: AMES SALMONELLA TYPHIMURIUM, Strain/Indicator: TA98, Metabolic Activation: RAT, LIVER, S-9, AROCLOR 1254 (10% OR 30%), Method: PREINCUBATION) was “inactive; negative”, the mutagenic call (Test System: AMES SALMONELLA TYPHIMURIUM, Strain/Indicator: TA98, Metabolic Activation: RAT, LIVER, S-9, AROCLOR 1254 (10 OR 30%), Method: PREINCUBATION) was “inactive; negative” and the mutagenic call [4] was “inactive; negative”. The mutagenic call (Test System: AMES SALMONELLA TYPHIMURIUM, Strain/Indicator: TA100, Metabolic Activation: HAMSTER, LIVER, S-9, AROCLOR 1254 (30%), Method: PREINCUBATION) was “inactive; negative”, the mutagenic call [2] was “inactive; negative” and the mutagenic call (Test System: AMES SALMONELLA TYPHIMURIUM, Strain/Indicator: TA100, Metabolic Activation: RAT, LIVER, S-9, AROCLOR 1254 (10% OR 30%), Method: PREINCUBATION) was “inactive; negative”. For the same compound, the mutagenic call (Test System: AMES SALMONELLA TYPHIMURIUM, Strain/Indicator: TA100, Metabolic Activation: RAT, LIVER, S-9, AROCLOR 1254 (10 OR 30%), Method: PREINCUBATION) was “inactive; negative”, the mutagenic call (Test System: AMES SALMONELLA TYPHIMURIUM, Strain/Indicator: TA102, Metabolic Activation: NONE, Method: STANDARD PLATE) was “active; positive” and the mutagenic call (Test System: AMES SALMONELLA TYPHIMURIUM, Strain/Indicator: TA1535, Metabolic Activation: HAMSTER, LIVER, S-9, AROCLOR 1254 (10% OR 30%), Method: PREINCUBATION) was “inactive; negative”. For the same compound, the mutagenic call (Test System: AMES SALMONELLA TYPHIMURIUM, Strain/Indicator: TA1535, Metabolic Activation: HAMSTER, LIVER, S-9, AROCLOR 1254 (10 OR 30%), Method: PREINCUBATION) was “inactive; negative”, the mutagenic call [5] was “inactive; negative” and the mutagenic call (Test System: AMES SALMONELLA TYPHIMURIUM, Strain/Indicator: TA1535, Metabolic Activation: RAT, LIVER, S-9, AROCLOR 1254 (10% OR 30%), Method: PREINCUBATION) was “inactive; negative”. The mutagenic call (Test System: AMES SALMONELLA TYPHIMURIUM, Strain/Indicator: TA1535, Metabolic Activation: RAT, LIVER, S-9, AROCLOR 1254 (10 OR 30%), Method: PREINCUBATION) was “inactive; negative”, the mutagenic call (Test System: AMES SALMONELLA TYPHIMURIUM, Strain/Indicator: TA2638, Metabolic Activation: NONE, Method: STANDARD PLATE) was “inactive; negative” and the mutagenic call (Test System: CHINESE HAMSTER V-79, Strain/Indicator: V-79 (HPRT)/6-THIOGUANINE, Metabolic Activation: NONE) was “inactive; negative”. The mutagenic call (Test System: E. COLI, Strain/Indicator: WP2 (PKM101), Metabolic Activation: NONE, Method: STANDARD PLATE) was “active; positive”, the mutagenic call (Test System: E. COLI, Strain/Indicator: WP2 UVRA (PKM101), Metabolic Activation: NONE, Method: STANDARD PLATE) was “active; positive” and the mutagenic call (Test System: MOUSE LYMPHOMA, Strain/Indicator: L5178Y (HPRT)/6-THIOGUANINE, Metabolic Activation: NONE, Method: FLUCTUATION TEST) was “inactive; negative”. The mutagenic call (Test System: MOUSE LYMPHOMA, Strain/Indicator: L5178Y (TK+/TK-), Metabolic Activation: NONE, Method: FLUCTUATION TEST) was “inactive; negative”, the mutagenic call (Test System: MOUSE LYMPHOMA, Strain/Indicator: L5178Y (TK+/TK-), Metabolic Activation: NONE, Method: SUSPENSION/PLATE) was “inactive; negative” and the mutagenic call (Test System: MOUSE LYMPHOMA, Strain/Indicator: L5178Y (TK+/TK-), Metabolic Activation: RAT, LIVER, S-9, AROCLOR 1254, Method: SUSPENSION/PLATE) was “inactive; negative”.
